Test results as given in patent US4451483A, “2,3,4-Trinor-m-inter-phenylene-prostaglandin derivatives and compositions and method for inhibiting blood platelet aggregation” (Chinoin Gyogyszer es Vegyeszeti Termekek Gyara Rt., priority 1981, dated 1984).
Where a name gives a salt, the structure may show the parent alone. Read-outs that look alike come from different tables or passages of the source.

Legend:
[1] = sodium salt: storage, free acid: physiological conditions, hydrolysis into 6-keto-PGF1α, cited from earlier work
[2] = Biological half-life in aqueous medium (period within which the biological activity drops to the half); type: physicochemical; settings: aqueous medium at pH=7
Experimental: The biological half-life (i.e. the period within which the biological activity of the substance drops to the half) is 3 minutes for PGI2 an an aqueous medium at pH=7, and about 7 days for the new compounds according to the invention.

guinea pig PRP = assay: Inhibition of ADP-induced aggregation in guinea pig platelet rich plasma (PRP), method of Born; type: cell-based; settings: Cavia porcellus, aggregation provoked by 4 μmol/ml of ADP, read-out: IC100 on guinea pig PRP (concentration required to attain 100% inhibiting effect)
Excerpt: (§1) The main pharmacological effect of the new compounds according to the invention is that, like PGI2, they inhibit blood platelet aggregation and are able to dissolve the already existing agglomerates. The aggregation inhibiting effects of the new compounds were examined on human and guinea pig platelet rich plasma (PRP) according to the method of Born. Aggregation was provoked by adding 4 μmol/ml of ADP to the plasma, and then the prostacycline concentrations required to attain 50% or 100% inhibiting effect (IC50 or IC100) were determined.

human PRP = assay: Inhibition of ADP-induced aggregation in human platelet rich plasma (PRP), method of Born; type: cell-based; settings: aggregation provoked by 4 μmol/ml of ADP, read-out: IC50 on human PRP (concentration required to attain 50% inhibiting effect)
Excerpt: as §1

Row | Compound | stability of prostacycline sodium salt / free acid ([1]; listed as free PGI2 acid) | half-life [2] | IC100 (guinea pig PRP) | IC50 (human PRP) | stability of prostacycline sodium salt / free acid ([1]; listed as sodium salt of prostacycline)
1 | CCCCC[C@H](O)/C=C/[C@@H]1[C@H]2C/C(=C/CCCC(=O)O)O[C@H]2C[C@H]1O [PGI2] | rapidly hydrolyzes into 6-keto-PGF1α | 3 min |  |  | 
2 | CCCCC[C@H](O)/C=C/[C@@H]1[C@H]2C/C(=C/CCCC(=O)O)O[C@H]2C[C@H]1O [PGI2 sodium salt] |  |  | 0.00175 µg/mL | 2 ng/mL | very stable, highly storable compound
3 | CCCCCC[C@H](O)/C=C/[C@@H]1[C@H]2C/C(=C/c3cccc(C(=O)O)c3)O[C@H]2C[C@H]1O [5(Z)-2,3,4-Trinor-1,5-inter-m-phenylene-20-methyl-PGI2 sodium salt] |  |  | 0.014 µg/mL | 12.5 ng/mL | 
